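Five compound concentrations were applied to cells in 96-well plates for 48 hours; endpoints were derived by simple linear interpolation of the resulting dose-response curve. Abbreviation: GI50, concentration required for 50% inhibition of growth.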 Activity calls are given as the source filed them. No stated cut-off is given here; in the data, active = GI50 up to about 1.1 µM and inactive = higher. Peptide text beside a SMILES is read from it. * marks the point of attachment. Cbz = O=C(OCc1ccccc1)*; OBn = c1ccc(CO*)cc1

Among the test systems are SK-OV-3; BT-549; SK-MEL-28; NCI-H522; CAKI-1; OVCAR-5; CCRF-CEM; MOLT-4; HT-29; OVCAR-3; HCT-15; SF-539; HCT-116; SR; Hs-578T; SNB-19; TK-10; OVCAR-8; SNB-75.
What all share (assay): growth of human tumour cells (NCI), 48 h

For the compound `NS(=O)(=O)c1ccc(Nc2c3ccccc3nc3c(C(=O)NCCO)cccc23)cc1`, the GI50 with SK-OV-3 was 0.201 µM (active); with BT-549, 0.145 µM (active); in the experiment on SK-MEL-28 it was 0.167 µM (active); in the experiment with NCI-H522, 0.127 µM (active); in the experiment on CAKI-1 it was 0.198 µM (active); in the experiment on OVCAR-5, 0.183 µM (active). The GI50 with CCRF-CEM is 0.0335 µM (active); in the experiment with MOLT-4, 0.0241 µM (active); in the experiment on HT-29 it was 0.16 µM (active); in the experiment on OVCAR-3, 0.12 µM (active); in the experiment with HCT-15, 0.169 µM; in the experiment with SF-539, 0.131 µM (active). The GI50 is 0.149 µM (active) in the experiment with HCT-116; 0.0128 µM (active) with SR; 0.188 µM (active) with Hs-578T; 0.0977 µM (active) in the experiment with SNB-19; 0.27 µM (active) in the experiment on TK-10; 0.173 µM (active) with OVCAR-8.

Consider `O=C1[C@H](c2ccccc2)C2c3ccccc3CCN12` (some centres not stated), for which the GI50 in the experiment with SK-OV-3, with BT-549, in the experiment with SK-MEL-28, in the experiment with NCI-H522, with CAKI-1 and with OVCAR-5 was > 10 µM (inactive) throughout. For the same compound, the GI50 in the experiment with CCRF-CEM was > 10 µM (inactive); with MOLT-4, > 10 µM (inactive); in the experiment on HT-29 it was > 10 µM (inactive); in the experiment on OVCAR-3, > 10 µM (inactive); with HCT-15, > 10 µM; with SF-539 it was > 10 µM (inactive). The GI50 is > 100 µM (inactive) in the experiment with SNB-75; > 10 µM (inactive) in the experiment on HCT-116; > 10 µM (inactive) with SR; > 10 µM (inactive) in the experiment on Hs-578T; > 10 µM (inactive) in the experiment with SNB-19; > 10 µM (inactive) in the experiment on TK-10. The GI50 in the experiment with OVCAR-8 was > 10 µM (inactive).

As to `O=C1N=C2SC=C(NC(=S)Nc3ccccc3)N2NC12c1ccccc1-c1ccccc12`, the GI50 with SK-OV-3, with BT-549, in the experiment on SK-MEL-28, with NCI-H522, in the experiment on CAKI-1 and in the experiment on OVCAR-5 was > 10 µM (inactive) in each case. Moreover, the GI50 with CCRF-CEM is > 10 µM (inactive); with MOLT-4 it was > 10 µM (inactive); in the experiment with HT-29 it was > 10 µM (inactive); in the experiment on HCT-15, > 10 µM; in the experiment with SF-539, > 10 µM (inactive); with SNB-75 it was > 10 µM (inactive). Further, the GI50 with HCT-116, in the experiment on SR, in the experiment on Hs-578T, in the experiment on SNB-19, in the experiment on TK-10 and with OVCAR-8 was > 10 µM (inactive) in each case.

Consider `CC[C@@]1(C[C@H]2C[C@@]3(C(=O)OC)c4[nH]c5ccccc5c4CCN3C2=S)COC2(CCCCC2)O1`, for which the GI50 in the experiment on SK-OV-3 is > 100 µM (inactive); in the experiment on BT-549, 4.72 µM (inactive); in the experiment on NCI-H522, 59.2 µM (inactive); in the experiment on CAKI-1, > 100 µM (inactive); in the experiment with OVCAR-5, > 100 µM (inactive); in the experiment with CCRF-CEM it was 7.23 µM (inactive). Besides, the GI50 in the experiment on MOLT-4 is 6.15 µM (inactive); with HT-29, 16.7 µM (inactive); with OVCAR-3 it was 55.7 µM (inactive); in the experiment with HCT-15, 5.57 µM; in the experiment on SF-539 it was > 100 µM (inactive); in the experiment on SNB-75, 17.8 µM (inactive). The GI50 in the experiment on HCT-116 was 6.92 µM (inactive); in the experiment with SR, 4.44 µM (inactive); in the experiment with Hs-578T it was 10.6 µM (inactive); with SNB-19, 38.5 µM (inactive); in the experiment on TK-10 it was 11.2 µM (inactive); in the experiment with OVCAR-8, > 100 µM (inactive).

For the compound `OC1CCCCCCCCCCC1[S+]1CCCC1.O[B-](F)(F)F` (configuration not stated), the GI50 is > 100 µM (inactive) in the experiment with SK-OV-3; > 100 µM (inactive) with BT-549; 68.4 µM (inactive) with SK-MEL-28; > 100 µM (inactive) with NCI-H522; > 100 µM (inactive) with CAKI-1; > 100 µM (inactive) with OVCAR-5. Moreover, the GI50 in the experiment on CCRF-CEM is > 100 µM (inactive); with MOLT-4, > 100 µM (inactive); with HT-29, 88.9 µM (inactive); with OVCAR-3, 52.5 µM (inactive); with HCT-15, > 100 µM; in the experiment on SF-539 it was > 100 µM (inactive). Also, the GI50 with HCT-116, with SR, with Hs-578T, in the experiment on SNB-19, in the experiment with TK-10 and with OVCAR-8 was > 100 µM (inactive) in each case.

`COC(=O)CNC(=O)C(C)NC(=O)C(CC(=O)OCc1ccccc1)NC(=O)OCc1ccccc1` (stereo not drawn) (Cbz-Asp(OBn)-Ala-Gly-OMe; configuration not given here): the GI50 in the experiment with SK-OV-3 is > 100 µM (inactive); in the experiment on BT-549, 37.8 µM (inactive); in the experiment on SK-MEL-28 it was 80.2 µM (inactive); with NCI-H522, 34.3 µM (inactive); with CAKI-1, 79.8 µM (inactive); with OVCAR-5, 39.4 µM (inactive). Also, the GI50 in the experiment on MOLT-4 is 13.7 µM (inactive); in the experiment with HT-29, 65.5 µM (inactive); in the experiment with OVCAR-3, 75 µM (inactive); in the experiment on HCT-15, 53.7 µM; in the experiment on SF-539, 70.8 µM (inactive); in the experiment on SNB-75 it was 72.1 µM (inactive). The GI50 is 30.6 µM (inactive) with HCT-116; 35.5 µM (inactive) with SR; 43.9 µM (inactive) in the experiment on Hs-578T; 57.3 µM (inactive) in the experiment on SNB-19; 20.5 µM (inactive) in the experiment on TK-10; 81.8 µM (inactive) in the experiment on OVCAR-8.

Regarding `CCN(CC)CCNc1ccc(/N=N/c2ccc(S(N)(=O)=O)cc2)c2ccccc12`, the GI50 was 13.6 µM (inactive) in the experiment with BT-549; 11.5 µM (inactive) with SK-MEL-28; 14.9 µM (inactive) in the experiment on NCI-H522; 13.7 µM (inactive) with CAKI-1; 23 µM (inactive) in the experiment with OVCAR-5; 4.51 µM (inactive) with CCRF-CEM. Also, the GI50 in the experiment with MOLT-4 is 6.25 µM (inactive); in the experiment with HT-29, 5.96 µM (inactive); with OVCAR-3, 2.43 µM (inactive); in the experiment with HCT-15, 4.52 µM; with SF-539, 3.63 µM (inactive); in the experiment on SNB-75, 10.3 µM (inactive). The GI50 in the experiment with HCT-116 was 3.72 µM (inactive); in the experiment on SR, 2.1 µM (inactive); with Hs-578T, 15.5 µM (inactive); in the experiment with SNB-19, 11.9 µM (inactive); with TK-10, 19.1 µM (inactive); in the experiment on OVCAR-8, 5.82 µM (inactive).

Take `CC(C(N)C(=O)NC(C(=O)O)C1OC(n2ccc(=O)[nH]c2=O)C(O)C1O)C(O)c1ccc(O)cn1` (configuration not stated): the GI50 with BT-549, with SK-MEL-28, in the experiment on NCI-H522, in the experiment with CAKI-1, in the experiment on OVCAR-5 and with CCRF-CEM was > 100 µM (inactive) each time. The GI50 is > 100 µM (inactive) in the experiment on MOLT-4; > 100 µM (inactive) in the experiment with HT-29; > 100 µM (inactive) in the experiment with OVCAR-3; > 100 µM in the experiment on HCT-15; > 100 µM (inactive) in the experiment with SF-539; > 100 µM (inactive) in the experiment with SNB-75. The GI50 in the experiment on HCT-116, in the experiment with SR, in the experiment with Hs-578T, with SNB-19, in the experiment on TK-10 and with OVCAR-8 was > 100 µM (inactive) throughout.

As for `O=C1c2cc([N+](=O)[O-])ccc2NC2C(O)c3ccccc3N12` (configuration not stated), the GI50 in the experiment on SK-OV-3 was 17.7 µM (inactive); in the experiment with BT-549, 22.8 µM (inactive); with NCI-H522, 16.2 µM (inactive); in the experiment with CAKI-1, 21.6 µM (inactive); in the experiment on OVCAR-5 it was > 100 µM (inactive); with MOLT-4 it was 19.7 µM (inactive). Besides, the GI50 with HT-29 is 80.4 µM (inactive); with OVCAR-3, 20.4 µM (inactive); with HCT-15 it was 29.3 µM; with SF-539, 29.3 µM (inactive); in the experiment on SNB-75, 20.2 µM (inactive); in the experiment on HCT-116 it was 30.8 µM (inactive). Also, the GI50 was 19.3 µM (inactive) in the experiment with SR; 0.706 µM (active) in the experiment on Hs-578T; 29 µM (inactive) in the experiment on SNB-19; 13.2 µM (inactive) in the experiment with TK-10; 23.3 µM (inactive) with OVCAR-8.

On to `CC(C)(C)N1C(=O)c2ccccc2C1(O)C(F)(F)F` (configuration not stated), for which the GI50 in the experiment on SK-OV-3 was > 100 µM (inactive); in the experiment on BT-549, > 100 µM (inactive); in the experiment on SK-MEL-28 it was > 100 µM (inactive); in the experiment on NCI-H522, 64.4 µM (inactive); in the experiment on CAKI-1, > 100 µM (inactive); with OVCAR-5, > 100 µM (inactive). Also, the GI50 with CCRF-CEM is > 100 µM (inactive); in the experiment with HT-29, > 100 µM (inactive); in the experiment on OVCAR-3, > 100 µM (inactive); with HCT-15, > 100 µM; with SF-539, > 100 µM (inactive); in the experiment with SNB-75 it was 24.4 µM (inactive). The GI50 in the experiment with HCT-116 was > 100 µM (inactive); with SR it was > 100 µM (inactive); in the experiment with Hs-578T, 24 µM (inactive); in the experiment with SNB-19 it was > 100 µM (inactive); with TK-10, > 100 µM (inactive); with OVCAR-8 it was > 100 µM (inactive).

For `Cc1cc(C)c2c(SCc3ccc(Cl)cc3Cl)nc(N)nc2n1`, the GI50 was > 100 µM (inactive) with SK-OV-3; > 100 µM (inactive) with BT-549; > 100 µM (inactive) in the experiment on SK-MEL-28; 15.5 µM (inactive) in the experiment on NCI-H522; > 100 µM (inactive) with CAKI-1; > 100 µM (inactive) in the experiment with OVCAR-5. For the same compound, the GI50 is > 100 µM (inactive) in the experiment with CCRF-CEM; > 100 µM (inactive) in the experiment on HT-29; 20.6 µM (inactive) with OVCAR-3; > 100 µM in the experiment on HCT-15; 58.6 µM (inactive) in the experiment with SNB-75; 27 µM (inactive) with HCT-116. The GI50 in the experiment on SR was 33 µM (inactive); in the experiment with Hs-578T, 37.8 µM (inactive); in the experiment on SNB-19 it was 58.9 µM (inactive); in the experiment with TK-10, 17.6 µM (inactive); with OVCAR-8 it was 28.9 µM (inactive).
